Data reported in patent US20250230193A1, “CYCLIC COMPOUND HAVING SELECTIVE KRAS INHIBITORY EFFECT ON HRAS AND NRAS” (CHUGAI SEIYAKU KABUSHIKI KAISHA, priority 2022, published 2025).

Experiments:
[1] = target: GDP-bound NRAS wild-type protein (Homo sapiens, UniProt P01111); test: Binding to NRAS by surface plasmon resonance (SPR), Single Cycle Kinetics; details: KD ratio NRAS/KRAS, class symbols
[2] = target: GDP-bound HRAS wild-type protein (Homo sapiens, UniProt P01112); test: Binding to HRAS by surface plasmon resonance (SPR), Single Cycle Kinetics; details: KD ratio HRAS/KRAS, class symbols
Sequence of GDP-bound HRAS wild-type protein (P01112 whole entry): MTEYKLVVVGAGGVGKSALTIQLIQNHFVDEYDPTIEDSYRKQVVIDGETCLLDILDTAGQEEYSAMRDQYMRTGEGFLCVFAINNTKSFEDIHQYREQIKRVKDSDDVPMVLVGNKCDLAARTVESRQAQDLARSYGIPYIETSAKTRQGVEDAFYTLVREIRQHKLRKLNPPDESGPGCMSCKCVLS

Sequence of GDP-bound NRAS wild-type protein (P01111 whole entry): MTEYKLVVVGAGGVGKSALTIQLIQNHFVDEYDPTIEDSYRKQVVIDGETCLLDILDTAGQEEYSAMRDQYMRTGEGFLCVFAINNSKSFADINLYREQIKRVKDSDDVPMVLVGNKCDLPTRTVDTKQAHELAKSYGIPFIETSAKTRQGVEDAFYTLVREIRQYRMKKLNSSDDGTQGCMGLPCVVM

Row | Structure (SMILES) | NRAS/KRAS (ratio of KD value with respect to GDP-bound NRAS wild-type protein to KD value with respect to KRAS) [1] | HRAS/KRAS (ratio of KD value with respect to GDP-bound HRAS wild-type protein to KD value with respect to KRAS) [2]
1 | CCC[C@H]1C(=O)N[C@@H](CC(C)C)C(=O)N(CCOC)CC(=O)N(C)[C@H]2C/C=C\CCN(C2=O)[C@@H](Cc2ccc(C)cc2)C(=O)N(C)CC(=O)N[C@@H](CCc2ccc(C(F)(F)F)c(Cl)c2)C(=O)N2C[C@H](OCC)C[C@H]2C(=O)NC2(CCC2)C(=O)N(C)[C@@H](C2CCCC2)C(=O)N(C)[C@H](C(=O)N(C)C)CC(=O)N1C [PP2546] | B (a compound having 3 or more and less than 10 is denoted as B) | B (a compound having 3 or more and less than 10 is denoted as B)
2 | CCC[C@H]1C(=O)N[C@@H](CC(C)C)C(=O)N2C[C@@H](OC)C[C@H]2C(=O)N(C)[C@H]2C/C=C\CCN(C2=O)[C@@H](Cc2ccc(C)cc2)C(=O)N(C)CC(=O)N[C@@H](CCc2cc(F)c(C(F)(F)F)c(F)c2)C(=O)N2C[C@H](OCC)C[C@H]2C(=O)NC2(CCC2)C(=O)N(C)[C@@H](C2CCCC2)C(=O)N(C)[C@H](C(=O)N(C)C)CC(=O)N1C [PP2547] | A (a compound having 10 or more and less than 20 is denoted as A) | B (a compound having 3 or more and less than 10 is denoted as B)
3 | CCC[C@H]1C(=O)N[C@@H](CC(C)C)C(=O)N2C[C@@H](OC)C[C@H]2C(=O)N(C)[C@H]2C/C=C\CCN(C2=O)[C@@H](Cc2ccc(C)cc2)C(=O)N(C)CC(=O)N[C@@H](CCc2ccc(C(F)(F)F)c(OC)c2)C(=O)N2C[C@H](OCC)C[C@H]2C(=O)NC2(CCC2)C(=O)N(C)[C@@H](C2CCCC2)C(=O)N(C)[C@H](C(=O)N(C)C)CC(=O)N1C [PP2548] | A (a compound having 10 or more and less than 20 is denoted as A) | B (a compound having 3 or more and less than 10 is denoted as B)
4 | CCC[C@H]1C(=O)N[C@@H](CC(C)C)C(=O)N2C[C@@H](OC)C[C@H]2C(=O)N(C)[C@H]2C/C=C\CCN(C2=O)[C@@H](Cc2ccc(C)cc2)C(=O)N(C)CC(=O)N[C@@H](CCc2ccc(C(F)(F)F)c(Cl)c2)C(=O)N2C[C@H](OCC)C[C@H]2C(=O)NC2(CCC2)C(=O)N(C)[C@@H](C2CCCC2)C(=O)N(C)[C@H](C(=O)N(C)C)CC(=O)N1C [PP2549] | A (a compound having 10 or more and less than 20 is denoted as A) | B (a compound having 3 or more and less than 10 is denoted as B)
5 | CCC[C@H]1C(=O)N[C@@H]([C@@H](C)CC)C(=O)N2C[C@@H](OC)C[C@H]2C(=O)N(C)[C@H]2C/C=C\CCN(C2=O)[C@@H](Cc2ccc(C)cc2)C(=O)N(C)CC(=O)N[C@@H](CCc2cc(F)c(C(F)(F)F)c(F)c2)C(=O)N2C[C@H](OCC)C[C@H]2C(=O)NC2(CCC2)C(=O)N(C)[C@@H](C2CCCC2)C(=O)N(C)[C@H](C(=O)N(C)C)CC(=O)N1C [PP2550] | A (a compound having 10 or more and less than 20 is denoted as A) | B (a compound having 3 or more and less than 10 is denoted as B)
6 | CCC[C@H]1C(=O)N[C@@H](CC(C)C)C(=O)N2C[C@@H](OC)C[C@H]2C(=O)N(C)[C@H]2C/C=C\CCN(C2=O)[C@@H](Cc2ccc(C)cc2)C(=O)N(C)CC(=O)N[C@@H](CCc2cc(F)c(C(F)(F)F)c(F)c2)C(=O)N2C[C@H](OCC)C[C@H]2C(=O)NC2(CC(C)(C)C2)C(=O)N(C)[C@@H](C2CCCC2)C(=O)N(C)[C@H](C(=O)N(C)C)CC(=O)N1C [PP2553] | A (a compound having 10 or more and less than 20 is denoted as A) | B (a compound having 3 or more and less than 10 is denoted as B)
7 | CCC[C@H]1C(=O)N[C@@H](CC(C)C)C(=O)N2C[C@@H](OC)C[C@H]2C(=O)N(C)[C@H]2C/C=C\CCN(C2=O)[C@@H](Cc2ccc(C)cc2)C(=O)N(C)CC(=O)N[C@@H](CCc2ccc(C(F)(F)F)c(OC)c2)C(=O)N2C[C@H](OCC)C[C@H]2C(=O)NC2(CC(C)(C)C2)C(=O)N(C)[C@@H](C2CCCC2)C(=O)N(C)[C@H](C(=O)N(C)C)CC(=O)N1C [PP2554] | A (a compound having 10 or more and less than 20 is denoted as A) | B (a compound having 3 or more and less than 10 is denoted as B)
8 | CCC[C@H]1C(=O)N[C@@H](CC(C)C)C(=O)N2C[C@@H](OC)C[C@H]2C(=O)N(C)[C@H]2C/C=C\CCN(C2=O)[C@@H](Cc2ccc(C)cc2)C(=O)N(C)CC(=O)N[C@@H](CCc2ccc(C(F)(F)F)c(Cl)c2)C(=O)N2C[C@H](OCC)C[C@H]2C(=O)NC2(CC(C)(C)C2)C(=O)N(C)[C@@H](C2CCCC2)C(=O)N(C)[C@H](C(=O)N(C)C)CC(=O)N1C [PP2555] | A (a compound having 10 or more and less than 20 is denoted as A) | B (a compound having 3 or more and less than 10 is denoted as B)
9 | CCC[C@H]1C(=O)N[C@@H]([C@@H](C)CC)C(=O)N2C[C@@H](OC)C[C@H]2C(=O)N(C)[C@H]2C/C=C\CCN(C2=O)[C@@H](Cc2ccc(C)cc2)C(=O)N(C)CC(=O)N[C@@H](CCc2cc(F)c(C(F)(F)F)c(F)c2)C(=O)N2C[C@H](OCC)C[C@H]2C(=O)NC2(CC(C)(C)C2)C(=O)N(C)[C@@H](C2CCCC2)C(=O)N(C)[C@H](C(=O)N(C)C)CC(=O)N1C [PP2556] | A (a compound having 10 or more and less than 20 is denoted as A) | B (a compound having 3 or more and less than 10 is denoted as B)
10 | CCC[C@H]1C(=O)N[C@@H]([C@@H](C)CC)C(=O)N2C[C@@H](OC)C[C@H]2C(=O)N(C)[C@H]2C/C=C\CCN(C2=O)[C@@H](Cc2ccc(C)cc2)C(=O)N(C)CC(=O)N[C@@H](CCc2ccc(C(F)(F)F)c(OC)c2)C(=O)N2C[C@H](OCC)C[C@H]2C(=O)NC2(CC(C)(C)C2)C(=O)N(C)[C@@H](C2CCCC2)C(=O)N(C)[C@H](C(=O)N(C)C)CC(=O)N1C [PP2557] | A (a compound having 10 or more and less than 20 is denoted as A) | B (a compound having 3 or more and less than 10 is denoted as B)
11 | CCC[C@H]1C(=O)N[C@@H]([C@@H](C)CC)C(=O)N(C2CC2)CC(=O)N(C)[C@H]2C/C=C\CCN(C2=O)[C@@H](Cc2ccc(C)cc2)C(=O)N(C)CC(=O)N[C@@H](CCc2ccc(Cl)c(Cl)c2)C(=O)N2C[C@H](OCC)C[C@H]2C(=O)NC2(CC(C)(C)C2)C(=O)N(C)[C@@H](C2CCCC2)C(=O)N(C)[C@H](C(=O)N(C)C)CC(=O)N1C [PP2559] | A (a compound having 10 or more and less than 20 is denoted as A) | A (a compound having 10 or more and less than 20 is denoted as A)
12 | CCC[C@H]1C(=O)N[C@@H]([C@@H](C)CC)C(=O)N(C2CC2)CC(=O)N(C)[C@H]2C/C=C\CCN(C2=O)[C@@H](Cc2ccc(C)cc2)C(=O)N(C)CC(=O)N[C@@H](CCc2cc(F)c(C(F)(F)F)c(F)c2)C(=O)N2C[C@H](OCC)C[C@H]2C(=O)NC2(CC(C)(C)C2)C(=O)N(C)[C@@H](C(CC)CC)C(=O)N(C)[C@H](C(=O)N(C)C)CC(=O)N1C [PP2560] | AA (a compound having 20 or more is denoted as AA) | A (a compound having 10 or more and less than 20 is denoted as A)
13 | CCC[C@H]1C(=O)N[C@@H]([C@@H](C)CC)C(=O)N(C2CC2)CC(=O)N(C)[C@H]2C/C=C\CCN(C2=O)[C@@H](Cc2ccc(C)cc2)C(=O)N(C)CC(=O)N[C@@H](CCc2ccc(Cl)c(Cl)c2)C(=O)N2C[C@H](OCC)C[C@H]2C(=O)NC2(CC(C)(C)C2)C(=O)N(C)[C@@H](C(CC)CC)C(=O)N(C)[C@H](C(=O)N(C)C)CC(=O)N1C [PP2561] | AA (a compound having 20 or more is denoted as AA) | A (a compound having 10 or more and less than 20 is denoted as A)
14 | CCO[C@@H]1C[C@H]2C(=O)NC3(CC(C)(C)C3)C(=O)N(C)[C@@H](C3CCCC3)C(=O)N(C)[C@H](C(=O)N(C)C)CC(=O)N(C)[C@@H](COC)C(=O)N[C@@H]([C@@H](C)CC)C(=O)N(C3CC3)CC(=O)N(C)[C@H]3C/C=C\CCN(C3=O)[C@@H](CC3CCCCC3)C(=O)N(C)CC(=O)N[C@@H](CCc3cc(F)c(C(F)(F)F)c(F)c3)C(=O)N2C1 [PP2562] | B (a compound having 3 or more and less than 10 is denoted as B) | B (a compound having 3 or more and less than 10 is denoted as B)
15 | CCO[C@@H]1C[C@H]2C(=O)NC3(CC(C)(C)C3)C(=O)N(C)[C@@H](C3CCCC3)C(=O)N(C)[C@H](C(=O)N(C)C)CC(=O)N(C)[C@@H](COC)C(=O)N[C@@H]([C@@H](C)CC)C(=O)N(C3CC3)CC(=O)N(C)[C@H]3C/C=C\CCN(C3=O)[C@@H](CC3CCCCC3)C(=O)N(C)CC(=O)N[C@@H](CCc3ccc(Cl)c(Cl)c3)C(=O)N2C1 [PP2563] | A (a compound having 10 or more and less than 20 is denoted as A) | A (a compound having 10 or more and less than 20 is denoted as A)
